Measurements: ChEMBL document CHEMBL5233257, “Anticancer property of ginsenoside Rh2 from ginseng” (Eur J Med Chem, 2020)
Values after ≈ are worked out from the molar mass of the structure shown.

Columns and labels:
MCF7 [1] = assay: Antiproliferative activity against human MCF7 cells; type: functional, cell-based
B16-F10 = assay: Induction of cell death in mouse B16-F10 cells; type: functional, cell-based
[2] = Induction of apoptosis in human HK-1 cells; type: functional, cell-based
Kasumi 1 = assay: Induction of apoptosis in human Kasumi 1 cells assessed as reduction in cell viability incubated for 72 hrs by CCK-8 assay; type: functional, cell-based; conditions: Kasumi 1, 72 h
HepG2 [3] = assay: Induction of apoptosis in human HepG2 cells incubated for 24 hrs; type: functional, cell-based; conditions: HepG2, 24 h
SW480 [4] = assay: Induction of cell death in human SW480 cells incubated for 48 hrs by trypan blue staining based analysis; type: functional; conditions: SW480, 48 h
SK-HEP1 = assay: Induction of apoptosis in human SK-HEP1 cells incubated for 2 hrs by fluorescence microscopic analysis; type: functional, cell-based; conditions: SK-HEP1, 2 h
HCT-116 [5] = assay: Cytotoxicity against human HCT-116 assessed as reduction in cell viability by MTT assay; type: functional, cell-based
PC-3 [6] = assay: Antiproliferative activity against human PC-3 cells incubated for 3 days; type: functional, cell-based; conditions: PC-3, 72 h
MDA-MB-231 [7] = assay: Induction of apoptosis in human MDA-MB-231 cells assessed as inhibition of cell viability; type: functional, cell-based
SW480 [8] = assay: Induction of apoptosis in human SW480 cells incubated for 2 hrs by fluorescence microscopic analysis; type: functional, cell-based; conditions: SW480, 2 h
HeLa = assay: Induction of apoptosis in human HeLa cells incubated for 2 hrs by fluorescence microscopic analysis; type: functional, cell-based
REH = assay: Induction of apoptosis in human REH cells; type: functional, cell-based
DU-145 = assay: Antiproliferative activity against human DU-145 cells incubated for 3 days; type: functional, cell-based; conditions: DU-145, 72 h
K562 = assay: Cytotoxicity against human K562 cells incubated for 48 hrs by CCK-8 assay; type: functional, cell-based; conditions: K562, 48 h
HCT-116 [9] = assay: Induction of cell death in human HCT-116 cells incubated for 48 hrs by trypan blue staining based analysis; type: functional; conditions: HCT-116, 48 h
KG-1 [10] = assay: Cytotoxicity against human KG-1 alpha cells incubated for 48 hrs by CCK-8 assay; type: functional, cell-based; conditions: KG-1, 48 h
Jurkat = assay: Induction of apoptosis in human Jurkat cells; type: functional, cell-based
Huh-7 = assay: Induction of cell death in human Huh-7 cells; type: functional, cell-based
MDA-MB-231 [11] = assay: Induction of cell death in human MDA-MB-231 cells; type: functional, cell-based
LNCaP [12] = assay: Antiproliferative activity against human LNCaP cells incubated for 3 days; type: functional, cell-based; conditions: 72 h
LNCaP [13] = assay: Antiproliferative activity against human LNCaP cells; type: functional, cell-based
[14] = Cytotoxicity against human KF cells assessed as reduction in cell viability measured after 5 days by crystal violet staining based analysis; type: functional; conditions: 120 h
PC-3 [15] = assay: Antiproliferative activity against human PC-3 cells; type: functional, cell-based
HepG2 [16] = assay: Induction of apoptosis in human HepG2 cells incubated for 72 hrs by PI/Annexin V-FITC analysis; type: functional, cell-based; conditions: HepG2, 72 h
THP-1 = assay: Induction of apoptosis in human THP-1 cells; type: functional, cell-based
[17] = Cytotoxicity against human KFR cells assessed as reduction in cell viability measured after 5 days by crystal violet staining based analysis; type: functional; conditions: 120 h
HepG2 [18] = assay: Induction of apoptosis in human HepG2 cells incubated for 48 hrs by PI/Annexin V-FITC analysis; type: functional, cell-based; conditions: HepG2, 48 h
HepG2 [19] = assay: Induction of apoptosis in human HepG2 beta-catenin cells incubated for 72 hrs by PI/Annexin V-FITC analysis; type: functional, cell-based; conditions: HepG2, 72 h
[20] = Inhibition of proliferation in human Jurkat cells assessed as reduction in cell viability incubated for 48 hrs by CCK-8 assay; type: functional, cell-based
HL-60 [21] = assay: Induction of apoptosis in human HL-60 cells assessed as reduction in cell viability incubated for 72 hrs by CCK-8 assay; type: functional, cell-based; conditions: HL-60, 72 h
[22] = Cytotoxicity against human HRA cells assessed as reduction in cell viability measured after 5 days by crystal violet staining based analysis; type: functional; conditions: 120 h
HL-60 [23] = assay: Cytotoxicity against human HL-60 cells measured after 24 hrs by MTT assay; type: functional, cell-based; conditions: HL-60, 24 h
MDA-MB-231 [24] = assay: Antiproliferative activity against human MDA-MB-231 cells; type: functional, cell-based
HepG2 [25] = assay: Induction of apoptosis in human HepG2 beta-catenin cells incubated for 48 hrs by PI/Annexin V-FITC analysis; type: functional, cell-based; conditions: HepG2, 48 h
U-937 = assay: Cytotoxicity against human U-937 cells measured after 24 hrs by MTT assay; type: functional, cell-based; conditions: U-937, 24 h
HL-60 [26] = assay: Induction of apoptosis in human HL-60 cells; type: functional, cell-based
MCF7 [27] = assay: Induction of apoptosis in human MCF7 cells assessed as inhibition of cell viability; type: functional, cell-based
HepG2 [28] = assay: Induction of apoptosis in human HepG2 cells incubated for 72 hrs; type: functional, cell-based; conditions: HepG2, 72 h
HepG2 [29] = assay: Induction of cell death in human HepG2 cells assessed as lethal dose; type: functional; conditions: read-out: LD50 (the source's name)
B16 = assay: Growth inhibition of mouse B16 cells; type: functional, cell-based
[30] = Cytotoxicity against human KK cells assessed as reduction in cell viability measured after 5 days by crystal violet staining based analysis; type: functional; conditions: 120 h
KG-1 [31] = assay: Cytotoxicity against human KG-1 alpha cells; type: functional, cell-based
A549 = assay: Antiproliferative activity against human A549 cells; type: functional, cell-based

**Q.** With CC(C)=CCC[C@](C)(O)[C@H]1CC[C@]2(C)[C@@H]1[C@H](O)C[C@@H]1[C@@]3(C)CC[C@H](O[C@@H]4O[C@H](CO)[C@@H](O)[C@H](O)[C@H]4O)C(C)(C)[C@@H]3CC[C@]12C [GINSENOSIDE RH2] as the molecule, how does the EC50 (MCF7 [1]) read?
**A.** 52.5 µM

**Q.** And the IC50 (B16-F10)?
**A.** 35.6 µM

**Q.** And the IC50 [2]?
**A.** 12 µM

**Q.** And the IC50 (Kasumi 1)?
**A.** 60.1 µM

**Q.** What about the IC50 (HepG2 [3]) of the same molecule?
**A.** 42.1 µM

**Q.** And the IC50 (SW480 [4])?
**A.** 35 µM

**Q.** What about the IC50 (SK-HEP1) of the same molecule?
**A.** 3.15 µg/mL (≈ 5.06 µM)

**Q.** What about the IC50 (HCT-116 [5]) of the same molecule?
**A.** 19.6 µM

**Q.** And the IC50 (PC-3 [6])?
**A.** 35 µM

**Q.** And the IC50 (MDA-MB-231 [7])?
**A.** 50 µM

**Q.** And the IC50 (SW480 [8])?
**A.** 4.06 µg/mL (≈ 6.52 µM)

**Q.** And the IC50 (HeLa)?
**A.** 2.52 µg/mL (≈ 4.05 µM)

**Q.** And the IC50 (REH)?
**A.** 40 µM

**Q.** And the IC50 (DU-145)?
**A.** 38 µM

**Q.** And the IC50 (K562)?
**A.** 60 µM

**Q.** And the IC50 (HCT-116 [9])?
**A.** 35 µM

**Q.** And the IC50 (KG-1 [10])?
**A.** 60 µM

**Q.** And the IC50 (Jurkat)?
**A.** 35 µM

**Q.** And the IC50 (Huh-7)?
**A.** 39 µM

**Q.** What about the IC50 (MDA-MB-231 [11]) of the same molecule?
**A.** 39.9 µM

**Q.** What about the IC50 (LNCaP [12]) of the same molecule?
**A.** 17 µM

**Q.** And the EC50 (LNCaP [13])?
**A.** 4.4 µM

**Q.** And the IC50 [14]?
**A.** 40 µM

**Q.** What about the EC50 (PC-3 [15]) of the same molecule?
**A.** 5.5 µM

**Q.** And the IC50 (HepG2 [16])?
**A.** 58.1 µM

**Q.** And the IC50 (THP-1)?
**A.** 15 µg/mL (≈ 24.1 µM)

**Q.** And the CC50 (THP-1; read-out: LC50 (the source's name))?
**A.** 15 µg/mL (≈ 24.1 µM)

**Q.** And the IC50 [17]?
**A.** 41 µM

**Q.** What about the IC50 (HepG2 [18]) of the same molecule?
**A.** 100 µM

**Q.** What about the IC50 (HepG2 [19]) of the same molecule?
**A.** 83.3 µM

**Q.** What about the IC50 [20] of the same molecule?
**A.** 35 µM

**Q.** And the IC50 (HL-60 [21])?
**A.** 25.6 µM

**Q.** What about the IC50 [22] of the same molecule?
**A.** 30 µM

**Q.** And the IC50 (HL-60 [23])?
**A.** 38 µM

**Q.** What about the EC50 (MDA-MB-231 [24]) of the same molecule?
**A.** 57.4 µM

**Q.** And the IC50 (HepG2 [25])?
**A.** 129 µM

**Q.** What about the IC50 (U-937) of the same molecule?
**A.** 38 µM

**Q.** What about the IC50 (HL-60 [26]) of the same molecule?
**A.** 25 µM

**Q.** What about the IC50 (MCF7 [27]) of the same molecule?
**A.** 50 µM

**Q.** And the IC50 (HepG2 [28])?
**A.** 1.65 µg/mL (≈ 2.65 µM)

**Q.** What about the CC50 (HepG2 [29]) of the same molecule?
**A.** 10 µM

**Q.** What about the IC50 (B16) of the same molecule?
**A.** 4.1 µg/mL (≈ 6.58 µM)

**Q.** What about the IC50 [30] of the same molecule?
**A.** 45 µM

**Q.** And the IC50 (KG-1 [31])?
**A.** 75 µM

**Q.** What about the IC50 (A549) of the same molecule?
**A.** 28.5 µg/mL (≈ 45.8 µM)
